# Where two headings read alike, the source gives them in different places.
# What was measured:
# [1] = Mouse pharmacokinetics, plasma BrP-LPA by HPLC-MS/MS; assay type: in vivo; details: 10 mg/kg i.p.
# Protocol: BrP-LPA, LPA species (C14:0, C16:0, C18:0, C18:1 and C20:4) and LPC species (C14:0, C16:0, C18:0, C18:1 and C20:0) were measured in plasma with HPLC-ESI/MS/MS using RSLCnano system (Ultimate 3000) coupled in-line with an LTQ Orbitrap XL mass spectrometer (Thermo Scientific, Waltham, MA, USA). BrP-LPA and lipid (LPA, LPC) extraction from plasma was performed on ice according to the Folch method with minor modifications. Plasma samples (50 ul) were mixed with 950 ul PBS prior to extraction and spiked with the internal standard mix (17:1 LPA/LPC). Samples were extracted under neutral conditions with 4 ml of ice-cold CHCl3/CH3OH (2/1, v/v) followed by 2 ml of PBS-saturated ice-cold CHCl3/CH3OH (2/1, v/v). Each extraction step was followed by a 60 s vortex and a 1 min centrifugation step in a bench-top clinical centrifuge in a cold room at 4°C at 3,000 rpm. The lower chloroform organic phases from both neutral extraction steps were pooled and kept for LPC measurement. The remained aqueous phase was chilled on ice for 10 min and extracted twice with ice-cold acidified with acetic acid CHCl3/CH3OH (2/1, v/v) as above. The lower organic phases were pooled, neutralized to pH 6–7 (checked with pH paper as above) on ice and kept for LPA, BrP-LPA measurements. The kept neutral lower organic phase of neutral extraction and the neutralized acidified lower organic phase were evaporated to dryness. The resulting residues were resuspended in 0.15 ml of isopropanol and after brief vortex mixing the solution was transferred to the auto sampler vial. Recovery of LPA species was between 60% and 95%. Recovery of BrP-LPA was 70% and the recovery of LPC species was between 80% and 100%. […] The precursor ion mass was used for the quantification while lipid identity was confirmed by precursor ion fragmentation using collision induced dissociation (CID). […]
# (§1) BrP-LPA was administered intraperitoneally (IP) at 10 mg/kg in water to 6–8 week old female mice. […] Plasma samples were then analysed for plasma ATX activity and BrP-LPA/LPA/LPC levels with the TOOS activity assay and HPLC-MS/MS respectively. […]
# LPA1 = details: Ca++ mobilization, RH7777 cells; kind of constant not given; read-out: inhibition of LPA1; cited from earlier work
# LPA4 = details: Ca++ mobilization, CHO cells; kind of constant not given; read-out: inhibition of LPA4; cited from earlier work
# MDA-MB-231 = system: MDA-MB-231; set-up: method as in PMID 19509223; details: MDA-MB-231, in vitro; cited from earlier work
# [2] = system: peri-tumor tissue fibroblasts, hepatocellular carcinoma cells; set-up: method as in PMID 21674557; details: cited from earlier work
# [3] = system: LPA production in whole blood; assay: LPA and LPC levels in whole blood ex vivo (HPLC-MS/MS); set-up: species or system mouse
# Protocol: (§2) BrP-LPA, LPA species (C14:0, C16:0, C18:0, C18:1 and C20:4) and LPC species (C14:0, C16:0, C18:0, C18:1 and C20:0) were measured in plasma with HPLC-ESI/MS/MS using RSLCnano system (Ultimate 3000) coupled in-line with an LTQ Orbitrap XL mass spectrometer (Thermo Scientific, Waltham, MA, USA). BrP-LPA and lipid (LPA, LPC) extraction from plasma was performed on ice according to the Folch method with minor modifications. Plasma samples (50 ul) were mixed with 950 ul PBS prior to extraction and spiked with the internal standard mix (17:1 LPA/LPC). Samples were extracted under neutral conditions with 4 ml of ice-cold CHCl3/CH3OH (2/1, v/v) followed by 2 ml of PBS-saturated ice-cold CHCl3/CH3OH (2/1, v/v). Each extraction step was followed by a 60 s vortex and a 1 min centrifugation step in a bench-top clinical centrifuge in a cold room at 4°C at 3,000 rpm. The lower chloroform organic phases from both neutral extraction steps were pooled and kept for LPC measurement. The remained aqueous phase was chilled on ice for 10 min and extracted twice with ice-cold acidified with acetic acid CHCl3/CH3OH (2/1, v/v) as above. The lower organic phases were pooled, neutralized to pH 6–7 (checked with pH paper as above) on ice and kept for LPA, BrP-LPA measurements. The kept neutral lower organic phase of neutral extraction and the neutralized acidified lower organic phase were evaporated to dryness. The resulting residues were resuspended in 0.15 ml of isopropanol and after brief vortex mixing the solution was transferred to the auto sampler vial. Recovery of LPA species was between 60% and 95%. Recovery of BrP-LPA was 70% and the recovery of LPC species was between 80% and 100%. The Relative Standard Deviation (RSD) was less than 7% from the plasma fortified with three different concentrations (0.1, 0.5 and 1 μΜ) of LPAs, (0.1, 1 and 10 μΜ) of BrP-LPA and (0.5, 5 and 50 μΜ) of LPCs. Analysis was performed using a Phenomenex (Phenomenex, Torrance, CA, USA) Luna Silica column (2–250 mm, 5 μm particle size) using a binary gradient program consisting of isopropanol:hexane:100 mM NH4CO2H(aq) 58:40:2 (mobile phase A) and isopropanol:hexane:100 mM NH4CO2H(aq) 50:40:10 (mobile phase B). The mobile phase was delivered at a flow rate of 0.3 ml/min and the total run time was 50 min/sample. The analysis was performed with electrospray ionization in negative SIM (Single Ion Monitoring) mode for LPA species and BrP-LPA and in positive mode for LPC species (data dependent MS/MS). The resolution was 100 K providing high accuracy for lysophospholipid measurements. Data were collected and processed with the Xcalibur software (Thermo Scientific). The precursor ion mass was used for the quantification while lipid identity was confirmed by precursor ion fragmentation using collision induced dissociation (CID). The peak area ratios (lipid/internal standard) versus the molar ratios (lipid/internal standard) were plotted and fitted to a linear regression. The linear dynamic range of LPA species and BrP-LPA was between 0.01 μM and 10 μΜ.
# The inhibition model (competitive, noncompetitive, or mixed type inhibition) was evaluated by graphical analysis with Lineweaver–Burk double reciprocal plots (1/[velocity] versus 1/[substrate]) and Cornish-Bowden plot ([substrate]/[velocity] versus [Inhibitor]). These plots were generated by the measurement of ATX activity in the presence of different BrP-LPA concentrations (0–10 μΜ) and increased amounts of 16:0 LPC (100, 200, 400 μΜ). The inhibition constants (Ki) and IC50 values were determined using the mean values obtained from two independent experiments. The relative remaining ATX activity or LPA levels in the presence of the BrP-LPA was expressed as a percentage of the corresponding control value (ATX activity, LPA levels without inhibitor). […]
# [4] = system: human colon cancer cells (HCT-116); set-up: method as in earlier work; details: HCT-116, in vitro; cited from earlier work
# LPA3 = details: Ca++ mobilization, RH7777 cells; kind of constant not given; read-out: inhibition of LPA3; cited from earlier work
# A549 cell = system: A549 cell; set-up: method as in PMID 20143443; details: A549, in vitro; cited from earlier work
# plasma LPA levels = assay: In vivo plasma LPA and LPC levels (HPLC-MS/MS); set-up: species or system mouse; details: 10 mg/kg i.p.
# Protocol: as §2, with “The analysis was performed with electrospray ionization in negative SIM (Single Ion Monitoring) mode for LPA species and BrP-LPA and in positive mode for LPC species (data dependent MS/MS). The resolution was 100 K providing high accuracy for lysophospholipid measurements. Data were collected and processed with the Xcalibur software (Thermo Scientific).” left out, “The peak area ratios (lipid/internal standard) versus the molar ratios (lipid/internal standard) were plotted and fitted to a linear regression. The linear dynamic range of LPA species and BrP-LPA was between 0.01 μM and 10 μΜ.” left out
# as §1
# lymphocyte trafficking = system: lymphocyte trafficking; set-up: method as in PMID 23365076; details: cited from earlier work
smiles,measurement,setting,value
"CCCCCCCCCCCCCCCC(=O)OC[C@@H](O)CC(Br)P(=O)(O)O (stereo partly drawn) [BrP-LPA, 1-bromo-3(S)-hydroxy-4-(palmitoyloxy)butyl-phosphonate]",Cmin,[1]; at 16 h,0.15 µM
same,Cmax,[1]; female mice,8 µM
same,t1/2,[1]; female mice,50 min
same,IC50,LPA1,1500 nM
same,IC50,LPA4,270 nM
same,breast cancer cell migration,MDA-MB-231,reduce breast cancer cell (MDA-MB-231) migration in vitro
same,"trans-differentiation of peri-tumor fibroblasts and HCC cell proliferation, migration, invasion",[2],"block the trans-differentiation of peri-tumor tissue fibroblasts and the associated proliferation, migration and invasion of hepatocellular carcinoma cells"
same,reduction of 18:0 LPA levels,[3]; BrP-LPA 10 μM,97%
same,reduction of total LPA levels,[3]; BrP-LPA 10 μM,86%
same,IC50,"[3]; read-out: IC50, production of 16:0 LPA",1340 nM
same,IC50,"[3]; read-out: IC50, production of 18:0 LPA",300 nM
same,IC50,"[3]; read-out: IC50, production of 18:1 LPA",1520 nM
same,IC50,"[3]; read-out: IC50, production of 20:4 LPA",559 nM
same,endogenous LPC levels,[3]; upon addition of BrP-LPA,no significant changes
same,"proliferation, migration and invasion",[4],"reduce human colon cancer cells (HCT-116) proliferation, migration and invasion in vitro"
same,IC50,LPA3,1200 nM
same,cell migration and invasiveness,A549 cell,inhibit cell migration and invasiveness
same,plasma LPC levels,plasma LPA levels,remain unchanged
same,production of LPA species in plasma,plasma LPA levels,inhibited the production of all LPA species tested except from 14:0 LPA
same,reduction of total plasma LPA levels,plasma LPA levels; 1 hour post administration,82%
same,"LPA levels, % of normal initial levels",plasma LPA levels; sixteen hours post administration,60–70%
same,lymphocyte trafficking in draining lymph nodes,lymphocyte trafficking,reduce lymphocyte trafficking in draining lymph nodes

# — publication PMC3726599, “A Metabolically-Stabilized Phosphonate Analog of Lysophosphatidic Acid Attenuates Collagen-Induced Arthritis” (PLoS ONE, 2013)
